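Exposure lasted 48 hours, with cells grown in 96-well plates and compounds tested at five concentrations. TGI: concentration producing complete growth inhibition.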
Assays:
Assay in all cases: inhibition of tumour cell growth, NCI panel, 48 h
786-0 renal = tested on: 786-0 renal
A498 renal = tested on: A498 renal
A549 NSCLC = tested on: A549 NSCLC
ACHN renal = tested on: ACHN renal
BT-549 breast = tested on: BT-549 breast
CAKI-1 renal = tested on: CAKI-1 renal
CCRF-CEM leukemia = tested on: CCRF-CEM leukemia
COLO 205 colon = tested on: COLO 205 colon
DU-145 prostate = tested on: DU-145 prostate
EKVX NSCLC = tested on: EKVX NSCLC
HCC-2998 colon = tested on: HCC-2998 colon
HCT-116 colon = tested on: HCT-116 colon
HCT-15 colon = tested on: HCT-15 colon
HL-60(TB) leukemia = tested on: HL-60(TB) leukemia
HOP-62 NSCLC = tested on: HOP-62 NSCLC
HOP-92 NSCLC = tested on: HOP-92 NSCLC
HS 578T breast = tested on: HS 578T breast
HT29 colon = tested on: HT29 colon
IGROV1 ovarian = tested on: IGROV1 ovarian
K-562 leukemia = tested on: K-562 leukemia
KM12 colon = tested on: KM12 colon
LOX IMVI melanoma = tested on: LOX IMVI melanoma
M14 melanoma = tested on: M14 melanoma
MALME-3M melanoma = tested on: MALME-3M melanoma
MCF7 breast = tested on: MCF7 breast
MDA-MB-231 breast = tested on: MDA-MB-231 breast
MDA-MB-435 = tested on: MDA-MB-435
MDA-N = tested on: MDA-N
MOLT-4 leukemia = tested on: MOLT-4 leukemia
NCI-H226 lung = tested on: NCI-H226 lung
NCI-H23 lung = tested on: NCI-H23 lung
NCI-H460 lung = tested on: NCI-H460 lung
NCI-H522 lung = tested on: NCI-H522 lung
NCI/ADR-RES ovarian = tested on: NCI/ADR-RES ovarian
OVCAR-3 ovarian = tested on: OVCAR-3 ovarian
OVCAR-4 ovarian = tested on: OVCAR-4 ovarian
OVCAR-5 ovarian = tested on: OVCAR-5 ovarian
OVCAR-8 ovarian = tested on: OVCAR-8 ovarian
PC-3 prostate = tested on: PC-3 prostate
RPMI-8226 leukemia = tested on: RPMI-8226 leukemia
RXF 393 renal = tested on: RXF 393 renal
SF-268 CNS = tested on: SF-268 CNS
SF-295 CNS = tested on: SF-295 CNS
SF-539 CNS = tested on: SF-539 CNS
SK-MEL-2 melanoma = tested on: SK-MEL-2 melanoma
SK-MEL-28 melanoma = tested on: SK-MEL-28 melanoma
SK-MEL-5 melanoma = tested on: SK-MEL-5 melanoma
SK-OV-3 ovarian = tested on: SK-OV-3 ovarian
SN12C renal = tested on: SN12C renal
SNB-19 CNS = tested on: SNB-19 CNS
SNB-75 CNS = tested on: SNB-75 CNS
SW-620 colon = tested on: SW-620 colon
T-47D breast = tested on: T-47D breast
TK-10 renal = tested on: TK-10 renal
U251 CNS = tested on: U251 CNS
UACC-257 melanoma = tested on: UACC-257 melanoma
UACC-62 melanoma = tested on: UACC-62 melanoma
UO-31 renal = tested on: UO-31 renal

Compound: CCOC(=O)c1oc2cc3c(c4c2c1-c1ccccc1N4C)C=CC(C)(C)O3
- TGI (786-0 renal): > 53 µM
- TGI (A498 renal): > 71.4 µM
- TGI (A549 NSCLC): > 100 µM
- TGI (ACHN renal): 30.5 µM
- TGI (BT-549 breast): 59.6 µM
- TGI (CAKI-1 renal): 40.8 µM
- TGI (CCRF-CEM leukemia): > 100 µM
- TGI (COLO 205 colon): > 100 µM
- TGI (DU-145 prostate): > 70 µM
- TGI (EKVX NSCLC): 46.6 µM
- TGI (HCC-2998 colon): > 100 µM
- TGI (HCT-116 colon): > 100 µM
- TGI (HCT-15 colon): > 100 µM
- TGI (HL-60(TB) leukemia): > 100 µM
- TGI (HOP-62 NSCLC): 24.7 µM
- TGI (HOP-92 NSCLC): 17.7 µM
- TGI (HS 578T breast): 75.1 µM
- TGI (HT29 colon): > 64 µM
- TGI (IGROV1 ovarian): 46.5 µM
- TGI (K-562 leukemia): > 91 µM
- TGI (KM12 colon): > 80.4 µM
- TGI (LOX IMVI melanoma): > 100 µM
- TGI (M14 melanoma): > 100 µM
- TGI (MALME-3M melanoma): 54.3 µM
- TGI (MCF7 breast): 26.8 µM
- TGI (MDA-MB-231 breast): > 100 µM
- TGI (MDA-MB-435): > 100 µM
- TGI (MDA-N): > 100 µM
- TGI (MOLT-4 leukemia): > 100 µM
- TGI (NCI-H226 lung): 48.9 µM
- TGI (NCI-H23 lung): > 67.4 µM
- TGI (NCI-H460 lung): > 100 µM
- TGI (NCI-H522 lung): 42.6 µM
- TGI (NCI/ADR-RES ovarian): 27.6 µM
- TGI (OVCAR-3 ovarian): 45.3 µM
- TGI (OVCAR-4 ovarian): > 100 µM
- TGI (OVCAR-5 ovarian): > 100 µM
- TGI (OVCAR-8 ovarian): 27.1 µM
- TGI (PC-3 prostate): > 55.3 µM
- TGI (RPMI-8226 leukemia): > 64 µM
- TGI (RXF 393 renal): 28.9 µM
- TGI (SF-268 CNS): > 49.3 µM
- TGI (SF-295 CNS): 30.8 µM
- TGI (SF-539 CNS): 21.2 µM
- TGI (SK-MEL-2 melanoma): > 76.4 µM
- TGI (SK-MEL-28 melanoma): > 95.4 µM
- TGI (SK-MEL-5 melanoma): 97.9 µM
- TGI (SK-OV-3 ovarian): 69.4 µM
- TGI (SN12C renal): > 100 µM
- TGI (SNB-19 CNS): > 54.9 µM
- TGI (SNB-75 CNS): 36.4 µM
- TGI (SW-620 colon): > 100 µM
- TGI (T-47D breast): > 84.4 µM
- TGI (TK-10 renal): 27.3 µM
- TGI (U251 CNS): 31 µM
- TGI (UACC-257 melanoma): > 100 µM
- TGI (UACC-62 melanoma): > 43.4 µM
- TGI (UO-31 renal): 65.5 µM

— PubChem BioAssay (NCI)
